Laboratory results reported in paper PMC6696115, “Characterization of Antimicrobial, Antioxidant, and Leishmanicidal Activities of Schiff Base Derivatives of 4-Aminoantipyrine” (Molecules, 2019).
≈ marks a conversion by molar mass, not a printed value.

Experiments:
[1] = system: Aspergillus niger ATCC 6275; experiment: antimicrobial serial microdilution, A. niger; type: cell-based; conditions: Aspergillus niger, ATCC6275; serial microdilution, 96-well plates, 35 °C, 48 h, max 2% DMSO
Method: (§1) The in vitro antifungal and antimicrobial activities were determined by testing the Schiff bases against the fungi Saccharomyces cerevisiae, Candida albicans, and Aspergillus niger and the bacteria Staphylococcus aureus, Enterococcus faecalis (Gram-positive), Pseudomonas aeruginosa, and Escherichia coli (Gram-negative).
(§2) The bacterial inoculum was prepared by emulsifying overnight colonies from an agar medium in broth (Mueller–Hinton broth). The suspensions were adjusted to a final organism density of 5 × 10^5 colony former units (cfu)/mL. […] The emulsifying of A. niger cultures was done by pouring 5 mL of saline and 0.1% of polysorbate 80 over the Petri dishes. Then, 100 µL of this suspension were diluted in 5 mL of saline and adjusted to an optical density of 0.1 at 530 nm. For S. cerevisiae, fresh exponential YPAD (yeast extract 1%, peptone 2%, adenine 0.004%, […]) cultures were adjusted to an optical density of 0.5 at 600 nm, and then diluted to the equivalent of 1 × 10^4 cells/mL (10^−3 dilution). Stock solutions of Schiff bases were prepared by dissolving them in DMSO at 10 mg/mL. […] The range of concentrations used was empirically selected for each organisms and the Schiff base. Drug sensitivities were assayed by serial dilutions in 96-well plates as previously described. A row with media and cells but without drug was the positive control. The blank was done by preparing a row with media and drugs, but without cells. Plates were fitted with a tight lid before incubation to prevent desiccation. […] The minimum bactericidal concentration (MBC) and fungicidal concentration (MFC) were determined by spreading 100 µL of culture from each well onto a plate (Mueller–Hinton agar for bacteria, Sabouraud dextrose agar for fungi except S. cerevisiae, and YPAD for S. cerevisiae).

[2] = system: Candida albicans ATCC 10231; experiment: antimicrobial serial microdilution, C. albicans; type: cell-based; conditions: Candida albicans, ATCC10231; serial microdilution, 35 °C, 48 h
Method: as §1, §2

[3] = system: S. cerevisiae (backgrounds W303 and BY4741); experiment: antimicrobial serial microdilution, S. cerevisiae; type: cell-based, Saccharomyces cerevisiae; conditions: serial microdilution, 35 °C, 48 h; for MIC: read-out: MIC S. cerevisiae
Method: as §1, §2

[4] = system: Enterococcus faecalis ATCC 29212; experiment: antimicrobial serial microdilution, E. faecalis; type: cell-based; conditions: Enterococcus faecalis, ATCC29212; serial microdilution, 37 °C, 24 h
Method: as §1, §2

[5] = system: Staphylococcus aureus ATCC 29213; experiment: antimicrobial serial microdilution, S. aureus; type: cell-based; conditions: Staphylococcus aureus, ATCC29213; serial microdilution, 37 °C, 24 h
Method: as §1, §2

[6] = system: Escherichia coli ATCC 25922; experiment: antimicrobial serial microdilution, E. coli; type: cell-based; conditions: serial microdilution, 37 °C, 24 h
Method: as §1, §2

[7] = system: P. aeruginosa ATCC 27853; experiment: antimicrobial serial microdilution, P. aeruginosa; type: cell-based; conditions: Pseudomonas aeruginosa, ATCC27853, 37 °C, 24 h
Method: as §1, §2

[8] = system: promastigotes from L. mexicana (M379); experiment: leishmanicidal activity, MTT colorimetric assay; type: cell-based; conditions: Leishmania mexicana, 48 h exposure, 1% DMSO
Method: Leishmanicidal activities of all Schiff bases were evaluated by measuring promastigote mitochondrial activity using MTT colorimetric assay as described previously. […] The medium was renewed every four days. Parasite density was determined in a Neubauer chamber.
Into each well of a 96-well cell culture dish was dispensed 1 × 10^6 parasites. A stock solution of each of the Schiff Base was prepared in DMSO, and serial dilutions were added to the parasite suspension, keeping the solvent concentration at 1%. The final volume was 100 µL for each well and triplicate conditions were carried out. Pentamidine treatment (100 µg/mL) and untreated parasites were used as positive control and negative control, respectively. After exposure to the compounds for 48 h in culture medium, 10 µL of a solution of 5 mg/mL MTT dissolved in PBS was added to each well. […] Later, the plate was centrifuged at 4400 rpm for 10 min and the culture medium was then aspirated. Next, 100 µL of DMSO were added into each well to solubilize the formazan and the plate was shaken for 5 min. The colored formazan salt was measured by recording changes in absorbance at 570 nm using a microplate reader, a BioTek Synergy HT spectrophotometer. A reference wavelength of 630 nm was used to subtract background. Optical densities were analyzed as the quantity of formazan is directly proportional to the number of viable parasites. Data were analyzed with the statistical software GraphPad Prism.

[9] = DPPH radical scavenging assay; type: biochemical; conditions: for IC50: 30 min, room temperature, dark, absorbance 515 nm
Method: This was used immediately. The experimental procedure was adapted from the literature. Briefly, in a 96-well plate, 100 µL of solution of DPPH (2, 2-diphenyl-1-picrylhydrazyl) radical (0.2 mM in methanol) was added to 100 µL of methanolic solutions of 3a–j, 4, or 5, prepared as serial two-fold dilutions from the stock solution. Standards were also prepared in the same concentrations.
The percentage of DPPH scavenging was then calculated by using the following formula: % DPPH scavenging=100∗Asample+DPPH−Asample blank/ADPPH−Asolvent

[10] = system: S. cerevisiae wild type (BY4741); experiment: growth inhibition (OD600) of wild-type yeast, oxidative effect; type: cell-based, Saccharomyces cerevisiae; conditions: unit not given
Method: (§3) Next, we wanted to evaluate the oxidative activity. To do this, drop test assays were performed with wild-type (W303 and BY4741 backgrounds) and sod1 (BY4741 background) yeast cells in the presence of 200 µg/mL of the analyzed Schiff bases (Figure 3). The SOD1 gene encodes superoxide dismutase 1, an enzyme with a major role in detoxifying ROS species generated during metabolism or because of environmental exposure. sod1 mutant cells are unprotected against oxidative agents, decreasing survival in their presence.
(§4) (A) Drop test of serial dilution of yeast cell cultures (wild type from genetic background W303, wild type from genetic background BY4741, and sod1 mutant from genetic background BY4741) exposed to Schiff bases at 200 µg/mL. A control without drug and with 2% DMSO are included.
as §2

[11] = system: S. cerevisiae sod1 mutant (BY4741); experiment: growth inhibition (OD600) of sod1 mutant yeast, oxidative effect; type: cell-based, Saccharomyces cerevisiae; conditions: sod1 mutant BY4741, unit not given
Method: as §3, §4, §2

[12] = system: S. cerevisiae wild-type (W303 and BY4741 backgrounds); experiment: drop test, wild-type yeast; type: cell-based, Saccharomyces cerevisiae; conditions: 200 µg/mL, 48 h, 25 °C
Method: Since the Schiff bases have a limited solubility in dimethyl sulfoxide (DMSO), first, we tested the toxicity of DMSO against the selected microorganism. […] Wild-type cells from W303 background seem to be more resistant, and sensitivity is observed at around 4% DMSO.
as §3, with “presence. […] Also, wild-type cells are shown as control, unaffected by the Schiff bases.” for “presence.”
(§5) For the drop test with S. cerevisiae, wild-type strain (background W303), and wild type and sod1 mutant cells (background BY4741) were grown overnight in YPAD media until an optical density of 0.5 at 600 nm was reached (equivalent to 1 × 10^7 cells/mL). Three serial dilutions were prepared and 5 µL of each was spotted onto a plate (approximately 1 × 10^5, 1 × 10^4, 1 × 10^3, and 1 × 10^2 cells/spot). YPAD plates were supplemented with 200 µg/mL of each Schiff base, and one plate supplemented with 2% DMSO and one plate with YPAD without any drug were used as controls. Plates were incubated at 25 °C for 24, 48, and 72 h.

[13] = system: S. cerevisiae sod1 mutant cells (background BY4741); experiment: drop test, sod1 mutant yeast; type: cell-based, Saccharomyces cerevisiae; conditions: 200 µg/mL, 48 h, 25 °C, compared to control
Method: as §3, with “presence. […] Also, wild-type cells are shown as control, unaffected by the Schiff bases.” for “presence.”
as §5

[14] = system: S. cerevisiae; experiment: biocidal/biostatic evaluation, plating on drug-free media, S. cerevisiae; type: cell-based, Saccharomyces cerevisiae; conditions: 24 h exposure, then plated on media free of drug
Method: as §2, with “cells.” for “cells. Plates were fitted with a tight lid before incubation to prevent desiccation.”

[15] = system: RAW 264.7 cells; experiment: cell viability, MTT dye assay; type: cell-based, murine; conditions: RAW 264.7, exposure to 300 µM (limited solubility), 48 h
Method: The specificity and selectivity for the pathogen target is a key point for any potential drug.
The medium was renewed once a week. The viability was determined using MTT (thiazolyl blue tetrazolium bromide) dye assay as described previously for leishmanicidal activity assessment, with some variations. Here, 5 × 10^4 cells/well in a final volume of 100 µL were deposited into a 96-well plate in triplicate. Saponin (2 and 4 mg/mL) and untreated cells were used as the positive control and negative control, respectively. Schiff bases were dissolved in DMSO to obtain different serial concentrations (0.01–2000 µM). […] Cells were pelleted by centrifugation at 4400 rpm for 10 minutes and the media was removed. Next, 100 µL/well of DMSO were added and the absorbance at 570 nm was recorded. A reference wavelength of 630 nm was used for background subtraction.

Row | SMILES | MIC [1] [µg/mL] | MIC [2] [µg/mL] | MIC ([3]; Saccharomyces cerevisiae) [µg/mL] | MIC [4] [µg/mL] | MIC [5] [µg/mL] | MIC ([6]; Escherichia coli, ATCC25922) [µg/mL] | MIC [7] [µg/mL] | IC50 [8] [µM] | IC50 [9] [µM] | melting point [°C] | other results
1 | Cc1c(N=CC=Cc2ccccc2)c(=O)n(-c2ccccc2)n1C [Compound 5, 4-Phenylallylideneamino-1,5-dimethyl-2-phenyl-1H-pyrazol-3(2H)-one] | > 200 | > 200 | 76.7 ± 5.7 (≈ 242 µM) | > 200 | > 200 | 22.6 ± 14.1 (≈ 71.2 µM) | > 200 | 81.5 ± 12.5 | > 200 | 165.5 to 165.9 | IC50 ([3]; Saccharomyces cerevisiae, read-out: IC50 S. cerevisiae (converted)): 22.8 µg/mL (≈ 71.8 µM); NIC S. cerevisiae ([3]; noninhibitory concentration): 6.6 ± 0.7 µg/mL; IC50 ([6]; Escherichia coli, ATCC25922): 12.4 µg/mL (≈ 39.1 µM); NIC E. coli ([6]; noninhibitory concentration): 5.1 ± 2.4 µg/mL; antioxidant activity detected in the DPPH assay ([9]; statement in words): no significant antioxidant activity; NIC Wt [10]: 22.6 ± 0.6; MIC Wt ([10]; in µg/mL): 65.2 ± 0.2; NIC sod1 [11]: 19.5 ± 0.8; MIC sod1 ([11]; in µg/mL): 39.4 ± 0.9; effect on wild-type cells in drop test [12]: unaffected; sensitivity of sod1 cells in drop test [13]: sensitive; inhibitory mechanism (fungicidal or fungistatic) [14]: fungicidal
2 | COc1ccc(C=Nc2c(C)n(C)n(-c3ccccc3)c2=O)cc1O [Compound 3e, 4-(3-Hydroxy-4-methoxybenzylideneamino)-1,5-dimethyl-2-phenyl-1H-pyrazol-3(2H)-one] | > 200 | > 200 | > 200 | > 200 | > 200 | > 200 | > 200 | > 200 | > 200 | 246.8 to 247.2 | % Live Cells [15]: 27.1 ± 0.8%
